Source: patent US7956041B2, “Prophylactic and therapeutic agent of diabetes mellitus” (Ajinomoto Co., Inc., priority 2002, dated 2011)

How the values were obtained:
[1] = tested on: Renal brush border membrane; experiment: Test Example 1A: inhibitory action of 14C-D-glucose uptake; type: biochemical; conditions: rat renal brush border membrane, 37° C., 30 minutes preincubation
Protocol: Test compounds were dissolved in 100 mM mannitol-10 mM HEPES/Tris, pH 7.4 to prepare solutions at various concentrations.
Renal brush border membrane was prepared from a rat kidney, to which a solution of a test compound was added for incubation at 37° C. for 30 minutes. Then, ^14C-D-glucose was added for incubation for one minute. A solution containing 1 mM phlorizin was used to terminate the glucose uptake reaction. The radioactivity ^14C of ^14C-D-glucose incorporated in the renal brush border membrane was counted with a liquid scintillation counter. The glucose uptake independent on sodium was reduced from the glucose uptake in a control group or a test group, to calculate the inhibition intensity.

[2] = tested on: Male Wistar rats; experiment: Test Example 1B: excretion action of urine sugar in rat; type: in vivo; conditions: oral administration, Dose 10 mg/kg, 24 hours
Protocol: Male Wistar rats aged 5 weeks (purchased from Charles River Japan, Inc.) were acclimatized in metabolic cages for one week, for use at this experiment. The test compounds suspended in olive oil were prepared into solutions to a dose of 5 ml per 1 kg rat body weight. After the rats were starved for 4 hours, the test compounds were orally given at 10, 30 and 100 mg/kg to the rats at 11 am. Immediately after dosing until 24 hours later, urine was collected. The volume of urine was measured. Then, urine glucose concentration was assayed by glucose oxidase method, to calculate the glucose excretion into urine per individual per day. As a positive control, 3-(5-benzo[b]furanyl)-2′-(6-o-methoxycarbonyl-β-D-glucopyranosyloxy)-6′-hydroxy-4′-methylpropiophenone [under a different name of 3-(benzo[b]furan-5-yl)-2′,6′-dihydroxy-4′-methylpropiophenone 2′-o-(6-o-methoxycarbonyl-β-D-glucopyranoside)] was used.

[3] = tested on: Type 2 diabetes model db/db mice; experiment: Example IV: nateglinide load test after 25 days of dosing in db/db mice; type: in vivo, mouse; conditions: db/db mice after long-term inhibitor B 80 mg/kg twice daily; compared with vehicle-dosed and nateglinide-dosed groups
Protocol: Type 2 diabetes model db/db mice (age 6 weeks) were fed and kept with a feed twice daily over one hour starting 9 am and one hour starting 3 pm, for one week. Then, the mice were divided into groups with matched blood glucose levels and body weights. Subsequently, the inhibitor B of renal glucose reabsorption at 80 mg/kg or nateglinide at 80 mg/kg was orally given, immediately before feeding twice daily. Only a vehicle was orally given immediately before feeding twice daily to the animals of a control group. […] Blood glucose levels were measured before and after the administration, to examine whether or not the hypoglycemic action of nateglinide could be observed (nateglinide load test).

[4] = tested on: glucose-loaded rats (Wistar rats); experiment: Example I: blood glucose time course after oral glucose loading in rats; type: in vivo, rat; conditions: glucose 1 g/kg p.o., FIG. 2
Protocol: Wistar rats (age of 7 weeks; male) were divided into groups with matched body weights. After 17-hour starvation, glucose was orally given at 1 g/kg to the animals. Immediately after the administration, the inhibitor A of renal glucose reabsorption or the inhibitor B of renal glucose reabsorption (A at 30 mg/kg or 60 mg/kg; B at 30 mg/kg or 80 mg/kg) or glibenclamide (1 mg/kg or 2 mg/kg) or nateglinide (50 mg/kg or 80 mg/kg) was orally given. Additionally, a group on the combined use of both of an inhibitor of renal glucose reabsorption and a hypoglycemic agent was also prepared. A vehicle was orally given to a control group after glucose administration.
Blood glucose was measured in a time course.

[5] = tested on: Male Wistar rats; experiment: Test Example 1: evaluation of urine sugar excretion action in rats; type: in vivo, rat; conditions: 100 mg/kg p.o. in olive oil, urine collected 24 hours, per individual per day
Protocol: Male Wistar rats aged 5 weeks (purchased from Charles River Japan, Inc.) were acclimatized in metabolic cages for one week, for use at this experiment. The test compounds suspended in olive oil were prepared into a 20 mg/ml solution to a dose of 5 ml per 1 kg rat body weight.
After the rats were starved for 4 hours, the test compounds were orally given at 100 mg/kg to the rats at 11 am. Immediately after dosing until 24 hours later, urine was collected. The volume of urine was measured. Then, urine sugar concentration was assayed by glucose oxidase method, to calculate the glucose excretion into urine per individual per day.

CCc1ccc(Cc2c(O[C@@H]3O[C@H](C(=O)O)[C@@H](O)[C@H](O)[C@H]3O)n[nH]c2C(F)(F)F)cc1 [Production Example 2-A, 4-((4-ethylphenyl)methyl)-5-(trifluoromethyl)-1H-pyrazol-3-yl-β-D-glucopyranoside uronic acid]
Inhibition intensity ([1]; concentration of test compound 100 μM): 30% (100 μM)

CSc1ccc(Cc2c(O[C@@H]3O[C@H](CO)[C@@H](O)[C@H](O)[C@H]3O)n[nH]c2C(F)(F)F)cc1 [Production Example 1-A, 4-((4-methylthiophenyl)methyl)-5-(trifluoromethyl)-1H-pyrazole-3-o-β-D-glucopyranoside]
Inhibition intensity ([1]; concentration of test compound 10 μM): 84% (10 μM)

COC(=O)OC[C@H]1O[C@@H](Oc2cc(C)cc(O)c2C(=O)CCc2ccc3occc3c2)[C@H](O)[C@@H](O)[C@@H]1O [3-(5-benzo[b]furanyl)-2′-(6-o-methoxycarbonyl-β-D-glucopyranosyloxy)-6′-hydroxy-4′-methylpropiophenone]
Excreted urine sugar [2]: 2 mg | Hyperglycemia 30 minutes after loading with glucose and nateglinide (in words) [3]: nateglinide greatly suppressed hyperglycemia due to glucose loading | Blood glucose 180 minutes after glucose loading and thereafter ([4]; inhibitor B 30 mg/kg alone or with nateglinide 50 mg/kg p.o., vs vehicle): lower than that in the vehicle-dosed group | Pattern of glycemic suppression at increased dose ([4]; nateglinide 80 mg/kg, inhibitor B 80 mg/kg): This pattern of glycemic suppression was also observed in the group with the increase of the dose

CCc1ccc(Cc2c(OC3OC(COC(=O)OC)C(O)C(O)C3O)nn(C3CCC3)c2C(F)(F)F)cc1 [Production Example 2, 1′-cyclobutyl-4′-[(4-ethylphenyl)methyl]-5′-trifluoromethyl-1H-pyrazole-3′-o-(6-carbomethoxy)-β-D-glucopyranoside]
Urine sugar excretion [5]: 656 mg

CCc1ccc(Cc2c(OC3OC(COC(=O)OC)C(O)C(O)C3O)nn(C3CCCC3)c2C(F)(F)F)cc1 [Production Example 4, 1′-cyclopentyl-4′-[(4-ethylphenyl)methyl]-5′-trifluoromethyl-1H-pyrazole-3′-o-(6-carbomethoxy)-β-D-glucopyranoside]
Urine sugar excretion [5]: 452 mg
